Measurements reported in ChEMBL document CHEMBL6103652, “Niacin Ester Derivative of Brefeldin A as a Potential Dual-Target Arf1/BMX Inhibitor for Bladder Cancer” (J Nat Prod, 2025).
Converted amounts (≈) assume the structure as drawn. The source made the active and inactive calls. No cut-off for these calls is given here.

Key:
T-24 [1] = experiment: Antiproliferative activity against human T24 cells assessed as inhibition of cell proliferation at 0.25 uM incubated for 72 hrs by MTT assay relative to control; assay type: functional
[2] = Solubility of the compound in aqueous saline; assay type: physicochemical
[3] = Antitumor activity against mouse MB49 cells implanted in male C57BL/6 mouse assessed as reduction in CD133 expression level at 1 mg/kg,iv bid measured after 14 days by immunohistochemical analysis relative to control; assay type: functional; parameters: scale not given: the % may be the effect or the level left; conditions: time 14 day
[4] = Toxicity in male C57BL/6 mouse allografted with mouse MB49 cells assessed as adverse effect at 1 mg/kg,iv bid measured after 14 days; assay type: organism-based; conditions: in vivo, 336 h, time 14 day
T-24 [5] = experiment: Induction of cell cycle arrest in human T24 cells assessed as accumulation of cells at G2/M phase at 0.25 uM incubated for 24 hrs by RNase A/Propidium Iodide staining based flow cytometry analysis (reference value: 22.67 %); assay type: functional
[6] = target: T1, Cytoplasmic tyrosine-protein kinase BMX (Homo sapiens) (UniProt P51813); experiment: Induction of thermal stabilization of BMX in human T24 cells at 48 to 68 degreeC at 0.13 to 0.50 uM incubated for 6 hrs by CETSA analysis; assay type: cell-based; conditions: dose 0.13-0.5 µM
T1 sequence (whole entry): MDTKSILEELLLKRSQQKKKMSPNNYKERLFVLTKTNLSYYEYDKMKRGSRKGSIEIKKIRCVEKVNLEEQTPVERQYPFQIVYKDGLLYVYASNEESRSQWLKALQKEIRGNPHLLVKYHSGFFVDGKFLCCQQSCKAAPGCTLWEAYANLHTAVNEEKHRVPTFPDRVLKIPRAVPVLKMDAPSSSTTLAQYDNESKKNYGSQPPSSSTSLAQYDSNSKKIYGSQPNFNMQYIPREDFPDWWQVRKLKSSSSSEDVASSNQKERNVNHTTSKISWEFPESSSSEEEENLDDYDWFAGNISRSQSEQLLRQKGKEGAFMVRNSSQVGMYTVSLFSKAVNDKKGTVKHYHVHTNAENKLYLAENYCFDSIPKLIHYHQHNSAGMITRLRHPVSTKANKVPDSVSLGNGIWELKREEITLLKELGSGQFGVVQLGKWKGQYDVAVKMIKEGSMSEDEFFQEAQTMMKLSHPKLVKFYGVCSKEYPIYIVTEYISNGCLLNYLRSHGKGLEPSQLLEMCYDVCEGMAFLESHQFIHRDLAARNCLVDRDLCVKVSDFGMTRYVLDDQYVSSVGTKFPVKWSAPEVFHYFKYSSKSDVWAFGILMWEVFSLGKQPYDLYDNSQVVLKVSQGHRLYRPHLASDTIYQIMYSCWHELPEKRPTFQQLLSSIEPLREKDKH

T-24 [7] = experiment: Induction in apoptosis in human T24 cells assessed as early apoptotic cells at 0.25 uM incubated for 48 hrs by Annexin V-FITC staining based flow cytometry analysis (reference value: 3.64 %); assay type: functional
HT-29 = experiment: Antiproliferative activity against human HT-29 cells assessed as inhibition of cell proliferation measured after 72 hrs by MTT assay; assay type: functional, cell-based; conditions: HT-29, 72 h
T-24 [8] = experiment: Induction in apoptosis in human T24 cells assessed as late apoptotic cells at 0.5 uM incubated for 48 hrs by Annexin V-FITC staining based flow cytometry analysis (reference value: 4.78 %); assay type: functional
[9] = Downregulation of p-AKT expression level in human T24 cells at 0.13 to 0.50 uM incubated for 24 hrs by Western blotting analysis relative to control; assay type: functional, T-24; conditions: dose 0.13-0.5 µM, at 0.13 to 0.5 µM
[10] = Solubility of the compound in 5% saline and 50% PEG400; assay type: physicochemical
[11] = Toxicity in male C57BL/6 mouse allografted with mouse MB49 cells assessed as body weight change at 1 mg/kg,iv bid measured after 14 days; assay type: organism-based; conditions: in vivo, 336 h, time 14 day
[12] = target: Signal transducer and activator of transcription 3 (Homo sapiens) (UniProt P40763); experiment: Inhibition of STAT3 phosphorylation in human T24 cells incubated for 24 hrs by Western blotting analysis; assay type: cell-based; conditions: dose 0.13-0.5 µM
T-24 [13] = experiment: Induction in apoptosis in human T24 cells assessed as late apoptotic cells at 0.13 uM incubated for 48 hrs by Annexin V-FITC staining based flow cytometry analysis (reference value: 4.78 %); assay type: functional
T-24 [14] = experiment: Induction in apoptosis in human T24 cells assessed as necrotic cells at 0.25 uM incubated for 48 hrs by Annexin V-FITC staining based flow cytometry analysis (reference value: 1.14 %); assay type: functional
[15] = target: T1, Cytoplasmic tyrosine-protein kinase BMX (Homo sapiens); experiment: Inhibition of BMX phosphorylation in human T24 cells incubated for 24 hrs by Western blotting analysis; assay type: cell-based; conditions: dose 0.13-0.5 µM
T-24 [16] = experiment: Induction in apoptosis in human T24 cells assessed as viable cells at 0.13 uM incubated for 48 hrs by Annexin V-FITC staining based flow cytometry analysis (reference value: 90.44 %); assay type: functional; conditions: read-out: Activity
T-24 [17] = experiment: Induction of cell cycle arrest in human T24 cells assessed as accumulation of cells at S phase at 0.13 uM incubated for 24 hrs by RNase A/Propidium Iodide staining based flow cytometry analysis (reference value: 31.27 %); assay type: functional
MB49 [18] = experiment: Antitumor immunity against mouse MB49 cells implanted in male C57BL/6 mouse assessed as increase in infiltration of CD8+T cells at 1 mg/kg,iv bid measured after 14 days immunofluorescence based analysis; assay type: functional, organism-based; conditions: time 14.0 day
[19] = Antitumor activity against mouse MB49 cells implanted in male C57BL/6 mouse model assessed as reduction in tumor weight at 1 mg/kg,iv bid measured after 14 days relative to control; assay type: functional; parameters: scale not given: the % may be the effect or the level left; conditions: time 14 day
Huh-7 = experiment: Antiproliferative activity against human Huh-7 cells assessed as inhibition of cell proliferation measured after 72 hrs by MTT assay; assay type: functional, cell-based; conditions: Huh-7, 72 h
L1210 = experiment: Antiproliferative activity against mouse L1210 cells assessed as inhibition of cell proliferation measured after 72 hrs by MTT assay; assay type: functional, cell-based; conditions: L1210, 72 h
[20] = Toxicity in male C57BL/6 mouse allografted with mouse MB49 cells assessed as tumor cell apoptosis at 1 mg/kg,iv bid measured after 14 days by H and E staining based analysis; assay type: organism-based; conditions: in vivo, 336 h, time 14 day
[21] = Volume of distribution at steady state in Sprague-Dawley rat at 5 mg/kg, iv measured upto 24 hrs; assay type: ADME, organism-based; conditions: in vivo, read-out: Vdss
[22] = Clearance in Sprague-Dawley rat at 5 mg/kg, iv measured upto 24 hrs; assay type: ADME, organism-based; conditions: in vivo
T-24 [23] = experiment: Induction in apoptosis in human T24 cells assessed as late apoptotic cells at 0.25 uM incubated for 48 hrs by Annexin V-FITC staining based flow cytometry analysis (reference value: 4.78 %); assay type: functional
MB49 [24] = experiment: Antitumor immunity against mouse MB49 cells implanted in male C57BL/6 mouse assessed as increase in infiltration of CD4+ cells at 1 mg/kg,iv bid measured after 14 days immunofluorescence based analysis; assay type: functional, organism-based; conditions: time 14.0 day
T-24 [25] = experiment: Induction of cell cycle arrest in human T24 cells assessed as accumulation of cells at G2/M phase at 0.50 uM incubated for 24 hrs by RNase A/Propidium Iodide staining based flow cytometry analysis (reference value: 22.67 %); assay type: functional; conditions: dose 0.5 µM
T-24 [26] = experiment: Induction in apoptosis in human T24 cells assessed as necrotic cells at 0.13 uM incubated for 48 hrs by Annexin V-FITC staining based flow cytometry analysis (reference value: 1.14 %); assay type: functional

Sequence of Signal transducer and activator of transcription 3 (Homo sapiens) (P40763 whole entry): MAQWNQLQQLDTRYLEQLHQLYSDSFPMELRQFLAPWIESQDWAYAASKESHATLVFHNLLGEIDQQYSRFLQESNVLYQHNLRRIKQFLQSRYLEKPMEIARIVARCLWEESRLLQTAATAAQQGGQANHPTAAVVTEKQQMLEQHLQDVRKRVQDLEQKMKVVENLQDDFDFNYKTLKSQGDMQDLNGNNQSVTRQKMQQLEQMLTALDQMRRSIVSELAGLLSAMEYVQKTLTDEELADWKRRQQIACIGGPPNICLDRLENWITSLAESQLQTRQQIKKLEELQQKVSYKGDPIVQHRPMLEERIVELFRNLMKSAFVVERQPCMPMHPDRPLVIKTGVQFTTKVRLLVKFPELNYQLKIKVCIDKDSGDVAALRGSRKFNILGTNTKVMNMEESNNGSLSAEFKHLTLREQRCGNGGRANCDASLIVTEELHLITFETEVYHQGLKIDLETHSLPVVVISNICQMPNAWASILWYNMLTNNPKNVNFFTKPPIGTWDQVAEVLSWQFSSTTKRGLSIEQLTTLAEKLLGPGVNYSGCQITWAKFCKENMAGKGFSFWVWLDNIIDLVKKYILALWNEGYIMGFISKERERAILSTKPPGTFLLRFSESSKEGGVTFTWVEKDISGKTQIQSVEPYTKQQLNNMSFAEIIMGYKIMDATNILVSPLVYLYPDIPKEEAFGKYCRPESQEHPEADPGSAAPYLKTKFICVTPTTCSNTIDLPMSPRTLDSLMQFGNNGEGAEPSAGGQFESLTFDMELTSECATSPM

For `C[C@H]1CCC/C=C/[C@@H]2C[C@H](O)C[C@H]2[C@H](OC(=O)c2cccnc2)/C=C/C(=O)O1`, the inhibition at 0.25 µM (T-24 [1]) was 54%, the solubility [2] was less than 1000 µg/mL and the Activity [3] was 61%. For the same compound, the Activity [4] was “Non-toxic”, the Activity (T-24 [5]) was 19.43% and the Activity [6] was “Active”. The Activity (T-24 [7]) was 6.75%, the IC50 (HT-29) was 410 nM and the Activity (T-24 [8]) was 24.81%. The Activity [9] was 46%, the solubility [10] was 5000 µg/mL (≈ 13 mM) and the Activity [11] was “Non-toxic”. For the same compound, the inhibition [12] was “Dose-dependent-effect”, the Activity (T-24 [13]) was 4.41% and the Activity (T-24 [14]) was 3.33%. The inhibition [15] was “Dose-dependent-effect”, the viability at 0.13 µM (T-24 [16]) was 89.2% and the Activity (T-24 [17]) was 28.6%. The Activity (MB49 [18]) was “Active”, the Activity [19] was 48% and the IC50 (Huh-7) was 1000 nM. For the same compound, the IC50 (L1210) was 6180 nM, the Activity [20] was “Non-toxic” and the Vd [21] was 0.59 L/kg. The clearance [22] was 68 mL/min/kg, the Activity (T-24 [23]) was 23.01% and the Activity (MB49 [24]) was “Active”. The Activity (T-24 [25]) was 14.82% and the Activity (T-24 [26]) was 0.91%.
